Among the data in patent US11028054B2, “1, 4, 6-trisubstituted-2-alkyl-1H-benzo[d]imidazole derivatives as dihydroorotate oxygenase inhibitors” (Merck Patent GmbH, priority 2017, dated 2021) are IC50 values, retold here.

In this experiment the target is DHODH (Homo sapiens (Human), UniProt Q02127). The experiment is described as follows: Measurement of DHODH inhibitory enzyme activity (coupled DCIP reduction assay). The class given is biochemical. The text has this:
Measurement of DHODH Inhibitory Enzyme Activity (In Vitro Assays)
The DHODH activity assay is a coupled enzyme assay in which oxidation of DHO and subsequent reduction of ubiquinone are stoichiometrically equivalent to the reduction of DCIP ([…]). The reduction of DCIP is accompanied by a loss of absorbance at 610 nm.
Reagents used: L-Dihydroorotic acid, Sigma, D7128, 2,6-Dichloroindophenol sodium salt hydrate, sigma, D1878 Dimethyl sulfoxide (DMSO), spectroscopic grade purchased from Spectrochem, cat no. 0704209, B. no.—3183650 Decylubiquinone, Sigma, D7911.
Preparation of Solutions/Reagents:
Buffer Preparation: 50 mM tris HCl, 150 mM KCl, and pH 8.0, 0.8% triton.
L-Dihydroorotic acid stock solution of 20 mM in buffer.
2, 6-Dichloroindophenol Sodium salt hydrate stock solution of 20 mM in buffer.
Decylubiquinone stock solution of 20 mM in buffer.
5 μL of Dimethyl sulfoxide or a compound of formula (I) in DMSO solution was added to the wells of a 96 well plate. Compounds of formula (I) were measured at 10 μM.
Protein along with buffer was added, so that the total volume including the DMSO was 87 μL. Compound and protein were incubated for half an hour at room temperature after mixing. 5 μL of 20 mM solution of L-Dihydroorotic acid, 5 μL of 2 mM solution of Decylubiquinone and 3 μL of 2 mM solution of 2, 6-Dichloroindophenol sodium salt hydrate were added to the above solution (total assay volume 100 μL). The mixture was stirred for 2 min and absorbance was recorded at every 10 min at 610 nanometers.
Percent inhibition is calculated as follows 100*{(Abs610 for reaction containing compound)−(Abs610 for positive control) (Abs610 for no enzyme reaction)−(Abs610 for positive control) Reaction containing compound has compound, buffer, enzyme and substrates Positive control contains DMSO, buffer, enzyme and substrates No Enzyme reaction contains DMSO, buffer and substrates IC50 determination: A 2 mM DMSO stock solution of the selected 1, 4, 6-trisubstituted-2-alkyl-1H-benzo[d]imidazole derivatives of formula (I) of the present invention to be examined was prepared. Subsequent ⅓rd dilutions were made as follows:
5 μL of each stock of compound of formula (I) (solution indicated in column 4 of table) was used for each 100 μL assay. Therefore, 5 μL of the 2 mM stock provided 100 μL of 100 μM solution of compound of formula (I), when made up with buffer, protein and substrate. See also: Ulrich et al. (2001) Eur. J. Biochem. 268, 1861-1868.

DHODH, sequence (Q02127 whole entry): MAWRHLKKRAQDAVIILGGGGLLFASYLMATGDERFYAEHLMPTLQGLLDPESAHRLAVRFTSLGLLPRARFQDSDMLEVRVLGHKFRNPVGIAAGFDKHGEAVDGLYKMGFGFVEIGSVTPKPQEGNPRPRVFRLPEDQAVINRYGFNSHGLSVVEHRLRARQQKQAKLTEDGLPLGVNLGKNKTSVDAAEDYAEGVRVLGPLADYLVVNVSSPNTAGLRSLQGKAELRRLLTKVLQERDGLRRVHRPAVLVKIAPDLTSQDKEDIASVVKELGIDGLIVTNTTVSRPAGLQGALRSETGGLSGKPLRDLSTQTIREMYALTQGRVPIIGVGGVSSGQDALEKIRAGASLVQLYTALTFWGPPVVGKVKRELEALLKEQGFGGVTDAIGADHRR

Turning to `Cc1nc2c(C(=O)O)cc(-c3ccc(-c4cccc(F)c4F)cc3)cc2[nH]1` [Example 4, 6-(2',3'-difluoro-[1,1'-biphenyl]-4-yl)-2-methyl-1H-benzo[d]imidazole-4-carboxylic acid], the IC50 was > 100 nM.

`Cc1nc2c(C(=O)O)cc(-c3ccc(-c4cccc(OCc5ccccc5)c4)cc3)cc2[nH]1` [Example 15, 6-(3'-(benzyloxy)-[1,1'-biphenyl]-4-yl)-2-methyl-1H-benzo[d]imidazole-4-carboxylic acid] returned an IC50 of 10 to 99 nM.

The molecule `Cc1nc2c(C(=O)O)cc(-c3ccc(-c4cccc(O)c4)cc3)cc2[nH]1` [Example 16, 6-(3'-hydroxy-[1,1'-biphenyl]-4-yl)-2-methyl-1H-benzo[d]imidazole-4-carboxylic acid] showed a 50% inhibitory concentration (IC50) of 10 to 99 nM.

As for `Cc1nc2c(C(=O)O)cc(-c3ccc(-c4ccccc4OCc4ccccc4)cc3)cc2[nH]1` [Example 17, 6-(2'-(benzyloxy)-[1,1'-biphenyl]-4-yl)-2-methyl-1H-benzo[d]imidazole-4-carboxylic acid], the IC50 fell in the range of 10 to 99 nM.

`Cc1nc2c(C(=O)O)cc(-c3ccc(-c4ccc(O)cc4)cc3)cc2[nH]1` [Example 20, 6-(4'-hydroxy-[1,1'-biphenyl]-4-yl)-2-methyl-1H-benzo[d]imidazole-4-carboxylic acid]: the IC50 lay within 10 to 99 nM.

Molecule `COc1cccc(-c2ccc(-c3cc(C(=O)O)c4nc(C)[nH]c4c3)cc2)c1F` [Example 21, 6-(2'-fluoro-3'-methoxy-[1,1'-biphenyl]-4-yl)-2-methyl-1H-benzo[d]imidazole-4-carboxylic acid] showed an IC50 of 10 to 99 nM.

`Cc1nc2c(C(=O)O)cc(-c3ccc(-c4ccccc4O)cc3)cc2[nH]1` [Example 23, 6-(2'-hydroxy-[1,1'-biphenyl]-4-yl)-2-methyl-1H-benzo[d]imidazole-4-carboxylic acid]: the IC50 is 10 to 99 nM.

`Cc1nc2c(C(=O)O)cc(-c3ccc(-c4cccc(CN5CCS(=O)(=O)CC5)c4)cc3)cc2[nH]1` [Example 36, 6-(3'-((1,1-dioxidothiomorpholino)methyl)-[1,1'-biphenyl]-4-yl)-2-methyl-1H-benzo[d]imidazole-4-carboxylic acid.2,2,2-trifluoroacetic acid] came in with an IC50 of 10 to 99 nM.

As to `Cc1nc2c(C(=O)O)cc(-c3ccc(-c4cccc(CNC(C)(C)C)c4)cc3)cc2[nH]1` [Example 39, 6-(3'-((tert-butylamino)methyl)-[1,1'-biphenyl]-4-yl)-2-methyl-1H-benzo[d]imidazole-4-carboxylic acid.2,2,2-trifluoroacetic acid], the IC50 is 10 to 99 nM.

Consider `Cc1nc2c(C(=O)O)cc(-c3ccc(-c4ccccc4CN4CCCCC4)cc3)cc2[nH]1` [Example 42, 2-methyl-6-(2'-(piperidin-1-ylmethyl)-[1,1'-biphenyl]-4-yl)-1H-benzo[d]imidazole-4-carboxylic acid.2,2,2-trifluoroacetic acid], for which the IC50 is 10 to 99 nM.

In the case of `Cc1nc2c(C(=O)O)cc(-c3ccc(-c4ccccc4CN4CCOCC4)cc3)cc2[nH]1` [Example 45, 2-methyl-6-(2'-(morpholinomethyl)-[1,1'-biphenyl]-4-yl)-1H-benzo[d]imidazole-4-carboxylic acid.2,2,2-trifluoroacetic acid], the IC50 was 10 to 99 nM.

`Cc1nc2c(C(=O)O)cc(-c3ccc(-c4ccccc4CN4CCCC4)cc3)cc2[nH]1` [Example 46, 2-methyl-6-(2'-(pyrrolidin-1-ylmethyl)-[1,1'-biphenyl]-4-yl)-1H-benzo[d]imidazole-4-carboxylic acid.2,2,2-trifluoroacetic acid] registered an IC50 of 1 to 9.9 nM.

Molecule `Cc1nc2c(C(=O)O)cc(-c3c(F)c(F)c(-c4ccccc4)c(F)c3F)cc2[nH]1` [Example 52, 2-methyl-6-(2,3,5,6-tetrafluoro-[1,1'-biphenyl]-4-yl)-1H-benzo[d]imidazole-4-carboxylic acid] yielded an IC50 of 1 to 9.9 nM.

`Cc1nc2c(C(=O)O)cc(-c3c(F)c(F)c(-c4ccccc4CN4CCCCC4)c(F)c3F)cc2[nH]1` [Example 53, 2-methyl-6-(2,3,5,6-tetrafluoro-2'-(piperidin-1-ylmethyl)-[1,1'-biphenyl]-4-yl)-1H-benzo[d]imidazole-4-carboxylic acid.2,2,2-trifluoroacetic acid] returned a 50% inhibitory concentration (IC50) of 1 to 9.9 nM.

Consider `Cc1nc2c(C(=O)O)cc(-c3c(F)c(F)c(-c4cccc(CN5CCCCC5)c4)c(F)c3F)cc2[nH]1` [Example 56, 2-methyl-6-(2,3,5,6-tetrafluoro-3'-(piperidin-1-ylmethyl)-[1,1'-biphenyl]-4-yl)-1H-benzo[d]imidazole-4-carboxylic acid.2,2,2-trifluoroacetic acid], for which the IC50 fell in the range of 1 to 9.9 nM.

`Cc1nc2c(C(=O)O)cc(-c3c(F)c(F)c(-c4cccc(CO)c4)c(F)c3F)cc2[nH]1` [Example 57, 2-methyl-6-(2,3,5,6-tetrafluoro-3'-(hydroxymethyl)-[1,1'-biphenyl]-4-yl)-1H-benzo[d]imidazole-4-carboxylic acid.2,2,2-trifluoroacetic acid] gave an IC50 of 1 to 9.9 nM.

`Cc1nc2c(C(=O)O)cc(-c3c(F)c(F)c(-c4cccc(CNC(C)C)c4)c(F)c3F)cc2[nH]1` [Example 59, 2-methyl-6-(2,3,5,6-tetrafluoro-3'-((isopropylamino)methyl)-[1,1'-biphenyl]-4-yl)-1H-benzo[d]imidazole-4-carboxylic acid.2,2,2-trifluoroacetic acid] registered an IC50 of 10 to 99 nM.

For `Cc1nc2c(C(=O)O)cc(-c3c(F)c(F)c(-c4cccc(CNC5CC5)c4)c(F)c3F)cc2[nH]1` [Example 60, 6-(3'-((cyclopropylamino)methyl)-2,3,5,6-tetrafluoro-[1,1'-biphenyl]-4-yl)-2-methyl-1H-benzo[d]imidazole-4-carboxylic acid.2,2,2-trifluoroacetic acid], the half-inhibitory concentration (IC50) was in the range of 1 to 9.9 nM.

For the molecule `Cc1nc2c(C(=O)O)cc(-c3c(F)c(F)c(-c4ccc(CN5CCCCC5)cc4)c(F)c3F)cc2[nH]1` [Example 61, 2-methyl-6-(2,3,5,6-tetrafluoro-4'-(piperidin-1-ylmethyl)-[1,1'-biphenyl]-4-yl)-1H-benzo[d]imidazole-4-carboxylic acid.2,2,2-trifluoroacetic acid], the IC50 lay in the range of 1 to 9.9 nM.

Regarding `Cc1nc2c(C(=O)O)cc(-c3c(F)c(F)c(-c4ccc(CN5CCCC5)cc4)c(F)c3F)cc2[nH]1` [Example 62, 2-methyl-6-(2,3,5,6-tetrafluoro-4'-(pyrrolidin-1-ylmethyl)-[1,1'-biphenyl]-4-yl)-1H-benzo[d]imidazole-4-carboxylic acid.2,2,2-trifluoroacetic acid], the half-maximal inhibitory concentration (IC50) lay within 10 to 99 nM.

`Cc1nc2c(C(=O)O)cc(-c3c(F)c(F)c(-c4ccc(CN5CCCC(F)(F)C5)cc4)c(F)c3F)cc2[nH]1` [Example 64, 6-(4'-((3,3-difluoropiperidin-1-yl)methyl)-2,3,5,6-tetrafluoro-[1,1'-biphenyl]-4-yl)-2-methyl-1H-benzo[d]imidazole-4-carboxylic acid.2,2,2-trifluoroacetic acid]: the IC50 lay within 1 to 9.9 nM.

As for `Cc1nc2c(C(=O)O)cc(-c3c(F)c(F)c(-c4ccc(CN5CCS(=O)(=O)CC5)cc4)c(F)c3F)cc2[nH]1` [Example 65, 6-(4'-((1,1-dioxidothiomorpholino)methyl)-2,3,5,6-tetrafluoro-[1,1'-biphenyl]-4-yl)-2-methyl-1H-benzo[d]imidazole-4-carboxylic acid.2,2,2-trifluoroacetic acid], the IC50 fell in the range of 1 to 9.9 nM.

`Cc1nc2c(C(=O)O)cc(-c3c(F)c(F)c(-n4c(C)ccc4C)c(F)c3F)cc2[nH]1` [Example 67, 6-(4-(2,5-dimethyl-1H-pyrrol-1-yl)-2,3,5,6-tetrafluorophenyl)-2-methyl-1H-benzo[d]imidazole-4-carboxylic acid] had an IC50 of 1 to 9.9 nM.

Molecule `Cc1nc2c(C(=O)O)cc(-c3ccc(OCc4ccccc4)cc3)cc2[nH]1` [Example 69, 6-(4-(benzyloxy)phenyl)-2-methyl-1H-benzo[d]imidazole-4-carboxylic acid] had an IC50 of 1 to 9.9 nM.

The molecule `Cc1nc2c(C(=O)O)cc(-c3ccc(-c4cccc(CO)c4)cc3)cc2[nH]1` [Example 90, 6-(3'-(hydroxymethyl)-[1,1'-biphenyl]-4-yl)-2-methyl-1H-benzo[d]imidazole-4-carboxylic acid] showed an IC50 of 10 to 99 nM.

With `Cc1nc2c(C(=O)O)cc(-c3ccc(-n4c(C)ccc4C)cc3)cc2[nH]1` [Example 111, 6-(4-(2,5-dimethyl-1H-pyrrol-1-yl)phenyl)-2-methyl-1H-benzo[d]imidazole-4-carboxylic acid], the 50% inhibitory concentration (IC50) fell in the range of 1 to 9.9 nM.
